Test results reported in patent US20250213598A1, “COMPOUNDS AS ELASTASE INHIBITOR AND SOLID FORM THEREOF” (priority 2023, published 2025).
In brackets after ≈: the same amount, converted by molar mass.

How the values were obtained:
[1] = Solid-state stability, 2-week study (HPLC, XRPD); assay type: physicochemical
Experimental: The solubility and stability are analyzed using an Agilent 1260 infinityII Binary Pump. • 4.

[2] = Photostability of crystal form A and amorphous form; assay type: physicochemical
Experimental: A certain amount of crystal form A and amorphous form of the compound shown in Formula (I) were respectively taken, and the stabilities of crystal form A and amorphous form were evaluated under light conditions.

[3] = Dynamic solubility in citrate buffer solutions at room temperature; assay type: physicochemical; details: for pH: supernatant
Experimental: During the test, about 200 mg of crystal form A or the amorphous form was added into 5 mL of buffered salt medium (approximately 40 mg/mL), and stirred magnetically at room temperature (approximately 25° C.). 1 mL of the suspension (or clear solution) taken at each of 2, 8, and 30 hours were centrifugated. The obtained solid is for crystal form detection (XRPD), and the supernatant/clear liquid after filtration is for solubility testing (HPLC) and pH testing.

[4] = Mechanical stability of crystal form A (grinding experiment, XRPD); assay type: physicochemical; details: room temperature
Experimental: A certain amount of crystal form A of the compound shown in Formula (I) was weighed, and ground dry or wet with an appropriate amount of water for 3 minutes at room temperature (˜23° C., 70% RH) to evaluate the mechanical stability of the crystal form A. The XRPD spectrums are shown in FIG. 6.

[5] = Pharmacokinetic experiment in Sprague-Dawley rats (intravenous / inhalation; plasma and lung); assay type: in vivo
Experimental: The appropriate amount of sodium citrate was weighed and dissolved in water to prepare a sodium citrate solution with a concentration of 1 mg/ml. After the addition of compound (I) (appropriate amount) under stirring, the sodium citrate solution was slowly added with 1 M sodium hydroxide solution to adjust the pH to 5.0±0.2. After stirring, dissolving and filtering, a stock solution of compound (I) with a concentration of 80 mg/ml was obtained, which is administrated by inhalation. The stock solution was diluted in a continuous gradient method to give a solution of compound (I) with a concentration of 0.4 mg/ml for intravenous administration.
21 male Sprague-Dawley rats was selected and divided into 7 groups (3 animals/group). Group 1 was administered intravenously at a dose of 2 mg/kg, and groups 2-7 are administered by inhalation at a designed dose of 15 mg/kg (an actual delivered dose is 16.712 mg/kg). For animals in groups 1-2, blood samples were collected before administration and at 2 min, 5 min, 15 min, 30 min, 1 h, 2 h, 4 h, 6 h, 8 h, and 24 h after administration. For animals in groups 3-7, lung tissues and blood samples were collected at 0.25 h, 1 h, 2 h, 6 h, and 12 h after administration (i.e., 2.25 h, 3 h, 4 h, 8 h, and 14 h After the start of the drug administration). The LC-MS/MS was used to analyze the concentration of compound (I) in the plasma and lung tissues of rats, and the non-compartmental model (NCA) of the pharmacokinetic analysis software WinNonlin (8.0.0.3176) is used to analyze the drug concentrations in plasma and lung tissue and calculate the pharmacokinetic parameters.

[6] = biological target: T1, Recombinant Human Elastase (rhElastase) (Homo sapiens, UniProt P08246); assay: Activity test against recombinant human elastase (rhElastase); assay type: biochemical
T1 sequence (P08246 30-267): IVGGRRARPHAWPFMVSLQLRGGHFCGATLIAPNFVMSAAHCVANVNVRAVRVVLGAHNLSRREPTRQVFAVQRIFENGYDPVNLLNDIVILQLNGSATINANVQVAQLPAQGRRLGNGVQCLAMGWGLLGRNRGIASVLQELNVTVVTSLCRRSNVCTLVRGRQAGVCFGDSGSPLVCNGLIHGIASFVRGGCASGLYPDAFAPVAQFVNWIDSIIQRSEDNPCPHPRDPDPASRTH
Experimental: Activation of protease: rhElastase was diluted to 2 μM with an activation buffer containing 1.25 μM Recombinant Mouse Active Cathepsin C Protein (mCathepsin C), and incubated at 37° C. for 2 h. After activation, the mature rhElastase was diluted to form a 3.33 nM rhElastase reaction solution. The compound was diluted in serial with DMSO and added to a 384-well plate (3-fold serial dilution, 10 concentration points, duplicate wells). For the 384-well plate containing the compound, columns 1-12 each was added with 15 μL of the reaction buffer and columns 13-24 each was added with 15 μL of the rhElastase reaction solution. The plate was pre-incubated at 25° C. for 30 min and added with 5 μL of the substrate to start the reaction. The final concentration of rhElastase is 2.5 nM, and the final concentration of the substrate is 3.125 μM. The final concentration of DMSO in the reaction system is 1%. After incubating at 37° C. for 60 min, the fluorescence value was read with an M4 microplate reader. The detection conditions are Ex/Em=380 nm/460 nm.

[7] = After 11 days, 25° C., illumination 5000 lux/h, near-ultraviolet 90 μW/cm^2
[8] = Inhalation, 15 mg/kg, SD rats, matrix Lung
[9] = Inhalation, 15 mg/kg, male SD rats, plasma
[10] = Intravenous, 2 mg/kg, male SD rats, plasma

SMILES: CC(C)[C@H](NC(=O)[C@@H]1CCCN1C(=O)[C@@H](NC(=O)c1ccc(C(=O)NCC(=O)O)cc1)C(C)C)B1OB([C@@H](NC(=O)[C@@H]2CCCN2C(=O)[C@@H](NC(=O)c2ccc(C(=O)NCC(=O)O)cc2)C(C)C)C(C)C)OB([C@@H](NC(=O)[C@@H]2CCCN2C(=O)[C@@H](NC(=O)c2ccc(C(=O)NCC(=O)O)cc2)C(C)C)C(C)C)O1 [Form A]
- Content (%) ([1]; 25° C./60 % RH, 1 week): 86.07%
- Crystal form ([1]; 25° C./60 % RH, 1 week): Form A
- Purity (area %) ([1]; 25° C./60 % RH, 1 week): 97.98 area %
- Relative to initial (%) ([1]; 25° C./60 % RH, 1 week): 98.9%
- Content (%) ([1]; 25° C./60 % RH, 2 weeks): 86.60%
- Crystal form ([1]; 25° C./60 % RH, 2 weeks): Form A
- Purity (area %) ([1]; 25° C./60 % RH, 2 weeks): 97.68 area %
- Relative to initial (%) ([1]; 25° C./60 % RH, 2 weeks): 98.6%
- crystal form changes in the two-week stability assessment ([1]; 25° C./60% RH, 40° C./75% RH, 60° C., two weeks): neither the amorphous form nor crystal form A underwent crystal form changes
- Content (%) ([1]; 40° C./75 % RH, 1 week): 86.41%
- Crystal form ([1]; 40° C./75 % RH, 1 week): Form A
- Purity (area %) ([1]; 40° C./75 % RH, 1 week): 97.96 area %
- Relative to initial (%) ([1]; 40° C./75 % RH, 1 week): 98.9%
- Content (%) ([1]; 40° C./75 % RH, 2 weeks): 86.85%
- Crystal form ([1]; 40° C./75 % RH, 2 weeks): Form A
- Purity (area %) ([1]; 40° C./75 % RH, 2 weeks): 97.76 area %
- Relative to initial (%) ([1]; 40° C./75 % RH, 2 weeks): 98.7%
- Content (%) ([1]; 60° C., 1 week): 87.34%
- Crystal form ([1]; 60° C., 1 week): Form A
- Purity (area %) ([1]; 60° C., 1 week): 98.16 area %
- Relative to initial (%) ([1]; 60° C., 1 week): 99.1%
- Content (%) ([1]; 60° C., 2 weeks): 87.98%
- Crystal form ([1]; 60° C., 2 weeks): Form A
- Purity (area %) ([1]; 60° C., 2 weeks): 97.50 area %
- Relative to initial (%) ([1]; 60° C., 2 weeks): 98.4%
- Content (%) ([1]; initial): 87.08%
- Crystal form ([1]; initial): Form A
- Purity (area %) ([1]; initial): 99.05 area %
- Content (%) [2, 7]: 85.00%
- Crystal form [2, 7]: Form A
- Purity (area %) [2, 7]: 97.92 area %
- Relative to initial (%) [2, 7]: 98.9%
- Initial Sample Content (%) ([2]; initial sample): 87.08%
- Initial Sample Purity (area %) ([2]; initial sample): 99.05 area %
- crystal form changes in the photostability test ([2]; light conditions): neither the amorphous form nor crystal form A underwent crystal form changes
- Solubility ([3]; Citrate buffer pH = 3.5, room temperature, 2 hours): 6.15 mg/mL (≈ 4.1 mM)
- Solubility ([3]; Citrate buffer pH = 3.5, room temperature, 8 hours): 15.28 mg/mL (≈ 10.2 mM)
- Solubility ([3]; Citrate buffer pH = 3.5, room temperature, 30 hours): 27.16 mg/mL (≈ 18.1 mM)
- Solubility ([3]; Citrate buffer pH = 4.5, room temperature, 2 hours): 16.06 mg/mL (≈ 10.7 mM)
- Solubility ([3]; Citrate buffer pH = 4.5, room temperature, 8 hours): 31.34 mg/mL (≈ 20.9 mM)
- Solubility ([3]; Citrate buffer pH = 4.5, room temperature, 30 hours): >34.94 mg/mL
- pH ([3]; citrate buffer pH = 3.5, 2 hours): 3.56
- pH ([3]; citrate buffer pH = 3.5, 8 hours): 3.58
- pH ([3]; citrate buffer pH = 3.5, 30 hours): 3.56
- pH ([3]; citrate buffer pH = 4.5, 2 hours): 4.48
- pH ([3]; citrate buffer pH = 4.5, 8 hours): 4.46
- pH ([3]; citrate buffer pH = 4.5, 30 hours): 4.38
- Achieved Crystal Form ([4]; Dry grind for 3 minutes): Amorphous
- Achieved Crystal Form ([4]; Dry grind for 3 minutes, listed as crystal form A): transformed into the amorphous form
- Achieved Crystal Form ([4]; Wet grind with water for 3 minutes): Form A
- Achieved Crystal Form ([4]; Wet grind with water for 3 minutes, listed as crystal form A): remains unchanged

SMILES: CC(C)C(NC(=O)C1CCCN1C(=O)C(NC(=O)c1ccc(C(=O)NCC(=O)O)cc1)C(C)C)B1OB(C(NC(=O)C2CCCN2C(=O)C(NC(=O)c2ccc(C(=O)NCC(=O)O)cc2)C(C)C)C(C)C)OB(C(NC(=O)C2CCCN2C(=O)C(NC(=O)c2ccc(C(=O)NCC(=O)O)cc2)C(C)C)C(C)C)O1 (stereo not shown) [compound (I)]
- Cmax [5, 8]: 67568.60
- Tmax [5, 8]: 2.25 h
- t1/2 [5, 8]: 2.69 h
- Tmax ([5]; Inhalation, 15 mg/kg, SD rats, matrix Plasma): 2.25 h
- Cmax ([5]; Inhalation, 15 mg/kg, SD rats, matrix Plasma, in ng/mL): 320.58
- AUClast ([5]; Inhalation, 15 mg/kg, SD rats, matrix Plasma, in ng·h/mL): 622.35
- F % ([5]; Inhalation, 15 mg/kg, male SD rats): 18.09%
- AUClast [5, 9]: 1501.79 ± 486.138 ng·h/mL
- Cmax [5, 9]: 798.55 ± 333.20 ng/mL
- Tmax [5, 9]: 2.03 ± 0.0 h
- t1/2 [5, 9]: 1.91 ± 1.05 h
- AUClast [5, 10]: 1107.18 ± 144.07 ng·h/mL
- Cmax [5, 10]: 5331.49 ± 696.49 ng/mL
- Tmax [5, 10]: 0.03 ± 0.0 h
- t1/2 [5, 10]: 0.33 ± 0.10 h
- IC50 [6]: 1.32 nM
